This is an account of results in ChEMBL document CHEMBL2029275, “Structure-activity relationship of a series of non peptidic RGD integrin antagonists targeting α5β1: part 2” (Bioorg Med Chem Lett, 2012).

Data set [1] concerns the target T1, Integrin alpha-5/beta-1 (Homo sapiens, UniProt P05556+P08648). The data set can be described thus: Binding affinity to integrin alpha5beta1. It counts as protein-complex assay.
The target of data set [2] is T1, Integrin alpha-5/beta-1. The data set can be described thus: Antagonist activity at integrin alpha5beta1 in human K562 cells assessed as inhibition of cell adhesion. It counts as functional, cell-based.
The target of data set [3] is T1, Integrin alpha-5/beta-1. The data set can be described thus: Antagonist activity at integrin alpha5beta1 in human K562 cells assessed as inhibition of cell adhesion in presence of human serum albumin. It counts as functional, cell-based.
For data set [4], the species on record is Homo sapiens. Briefly: Free drug level in human. It counts as ADME, organism-based. Particulars: in vivo.
The species entered for data set [5] is Rattus norvegicus. Briefly: Free drug level in rat. It counts as ADME, organism-based. Particulars: in vivo.
The target in data set [6] is Integrin alpha-V/beta-3 (Homo sapiens, UniProt P05106+P06756). The data set can be described thus: Antagonist activity at integrin alphaVbeta3 in human A375M cells assessed as cell adhesion to fibrinogen in presence of Mg2+. The class given is functional, cell-based.
Integrin alpha-V/beta-3, sequence (P05106 27-788 limits assumed): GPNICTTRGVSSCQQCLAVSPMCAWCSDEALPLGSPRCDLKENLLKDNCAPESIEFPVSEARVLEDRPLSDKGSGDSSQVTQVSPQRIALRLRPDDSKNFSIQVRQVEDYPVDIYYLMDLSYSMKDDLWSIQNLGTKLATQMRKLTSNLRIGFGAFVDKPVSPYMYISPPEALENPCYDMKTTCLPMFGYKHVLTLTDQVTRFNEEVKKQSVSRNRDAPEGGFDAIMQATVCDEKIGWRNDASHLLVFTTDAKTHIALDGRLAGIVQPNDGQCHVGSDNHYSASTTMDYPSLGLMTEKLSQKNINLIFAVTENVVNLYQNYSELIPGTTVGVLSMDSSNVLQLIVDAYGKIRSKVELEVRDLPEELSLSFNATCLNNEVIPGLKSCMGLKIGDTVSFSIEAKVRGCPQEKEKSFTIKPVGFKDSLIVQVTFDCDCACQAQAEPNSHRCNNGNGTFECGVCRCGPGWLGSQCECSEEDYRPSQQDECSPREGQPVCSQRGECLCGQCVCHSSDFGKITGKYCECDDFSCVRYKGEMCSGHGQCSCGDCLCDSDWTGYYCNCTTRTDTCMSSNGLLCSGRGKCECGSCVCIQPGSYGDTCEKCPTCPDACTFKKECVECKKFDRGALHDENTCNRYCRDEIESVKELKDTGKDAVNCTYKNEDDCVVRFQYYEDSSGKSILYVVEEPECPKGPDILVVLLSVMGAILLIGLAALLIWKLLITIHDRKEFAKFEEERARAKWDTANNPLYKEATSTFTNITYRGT
Integrin alpha-V/beta-3, sequence (P06756 31-889 limits assumed): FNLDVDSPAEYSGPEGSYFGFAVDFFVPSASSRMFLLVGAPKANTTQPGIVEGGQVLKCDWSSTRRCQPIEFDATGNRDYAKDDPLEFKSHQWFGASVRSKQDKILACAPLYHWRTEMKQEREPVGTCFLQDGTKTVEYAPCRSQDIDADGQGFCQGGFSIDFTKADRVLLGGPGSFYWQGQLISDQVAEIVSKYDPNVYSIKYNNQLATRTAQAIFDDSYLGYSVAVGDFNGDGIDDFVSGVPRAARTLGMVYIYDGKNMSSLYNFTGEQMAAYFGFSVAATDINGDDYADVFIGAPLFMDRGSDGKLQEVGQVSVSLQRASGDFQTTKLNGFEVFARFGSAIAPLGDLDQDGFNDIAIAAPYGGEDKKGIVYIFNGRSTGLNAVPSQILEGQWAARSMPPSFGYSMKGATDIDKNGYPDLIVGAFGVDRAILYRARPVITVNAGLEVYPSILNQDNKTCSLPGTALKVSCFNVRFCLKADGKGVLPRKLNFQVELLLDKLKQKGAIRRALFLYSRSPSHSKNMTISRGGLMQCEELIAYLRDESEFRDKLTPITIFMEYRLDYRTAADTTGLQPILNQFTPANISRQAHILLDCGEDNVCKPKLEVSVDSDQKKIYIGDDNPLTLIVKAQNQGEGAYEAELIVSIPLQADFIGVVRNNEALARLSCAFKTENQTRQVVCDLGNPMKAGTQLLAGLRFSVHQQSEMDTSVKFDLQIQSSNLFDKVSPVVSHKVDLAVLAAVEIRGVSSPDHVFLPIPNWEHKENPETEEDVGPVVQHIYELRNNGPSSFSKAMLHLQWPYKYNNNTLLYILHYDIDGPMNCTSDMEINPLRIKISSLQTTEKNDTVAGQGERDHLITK
Integrin alpha-V/beta-3, sequence (P06756 891-1048 limits assumed): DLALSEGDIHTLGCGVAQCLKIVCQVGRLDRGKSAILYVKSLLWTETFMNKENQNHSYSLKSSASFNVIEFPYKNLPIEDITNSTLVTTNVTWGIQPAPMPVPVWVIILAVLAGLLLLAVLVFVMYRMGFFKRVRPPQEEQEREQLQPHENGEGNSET
For data set [7], the target named is Fibronectin receptor (Integrin alpha-5/beta-1 and alpha-V/beta-3) (Homo sapiens, UniProt P05106+P05556+P06756+P08648). The data set can be described thus: Antagonist activity at integrin alphavbeta3alpha5beta1 in human A375M cells assessed as inhibition of cell adhesion to fibronectin in presence of Mg2+. The class given is functional, cell-based.
For data set [8], the target named is T1, Integrin alpha-5/beta-1. Briefly: Antagonist activity at integrin alpha5beta1 in human A375M cells assessed as inhibition of cell adhesion in presence of Mg2+ and MK-0429. It counts as functional, cell-based.
Data set [9] has as its system A375M. Briefly: Selectivity ratio of IC50 for integrin alphavbeta3alpha5beta1-mediated human A375M cells adhesion to fibronectin in absence of MK-0429 to IC50 for integrin alpha5beta1-mediated human A375M cells adhesion to fibronectin in presence of MK-0429. It counts as cell-based.

T1 sequence (P05556 21-798 limits assumed): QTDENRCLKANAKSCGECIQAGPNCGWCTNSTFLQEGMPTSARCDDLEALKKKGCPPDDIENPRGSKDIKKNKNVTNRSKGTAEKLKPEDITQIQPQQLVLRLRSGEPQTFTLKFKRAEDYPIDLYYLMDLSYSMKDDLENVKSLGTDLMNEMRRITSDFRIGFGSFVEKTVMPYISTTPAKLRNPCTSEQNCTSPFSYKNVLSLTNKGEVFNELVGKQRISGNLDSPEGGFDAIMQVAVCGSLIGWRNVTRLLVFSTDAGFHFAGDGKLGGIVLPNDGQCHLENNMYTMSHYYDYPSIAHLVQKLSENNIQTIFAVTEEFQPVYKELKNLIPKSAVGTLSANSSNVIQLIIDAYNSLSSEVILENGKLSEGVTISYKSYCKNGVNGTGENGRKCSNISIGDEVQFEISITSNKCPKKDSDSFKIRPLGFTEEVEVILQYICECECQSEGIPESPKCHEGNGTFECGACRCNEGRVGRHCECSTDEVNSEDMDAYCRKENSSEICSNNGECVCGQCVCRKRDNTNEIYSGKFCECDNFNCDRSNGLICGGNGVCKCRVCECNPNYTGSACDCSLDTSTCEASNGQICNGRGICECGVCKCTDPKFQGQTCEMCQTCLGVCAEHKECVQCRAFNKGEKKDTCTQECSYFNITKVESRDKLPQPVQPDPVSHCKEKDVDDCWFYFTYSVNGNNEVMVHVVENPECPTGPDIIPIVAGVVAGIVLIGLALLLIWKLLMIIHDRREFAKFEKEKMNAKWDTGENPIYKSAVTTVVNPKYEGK
T1 sequence (P08648 42-894 limits assumed): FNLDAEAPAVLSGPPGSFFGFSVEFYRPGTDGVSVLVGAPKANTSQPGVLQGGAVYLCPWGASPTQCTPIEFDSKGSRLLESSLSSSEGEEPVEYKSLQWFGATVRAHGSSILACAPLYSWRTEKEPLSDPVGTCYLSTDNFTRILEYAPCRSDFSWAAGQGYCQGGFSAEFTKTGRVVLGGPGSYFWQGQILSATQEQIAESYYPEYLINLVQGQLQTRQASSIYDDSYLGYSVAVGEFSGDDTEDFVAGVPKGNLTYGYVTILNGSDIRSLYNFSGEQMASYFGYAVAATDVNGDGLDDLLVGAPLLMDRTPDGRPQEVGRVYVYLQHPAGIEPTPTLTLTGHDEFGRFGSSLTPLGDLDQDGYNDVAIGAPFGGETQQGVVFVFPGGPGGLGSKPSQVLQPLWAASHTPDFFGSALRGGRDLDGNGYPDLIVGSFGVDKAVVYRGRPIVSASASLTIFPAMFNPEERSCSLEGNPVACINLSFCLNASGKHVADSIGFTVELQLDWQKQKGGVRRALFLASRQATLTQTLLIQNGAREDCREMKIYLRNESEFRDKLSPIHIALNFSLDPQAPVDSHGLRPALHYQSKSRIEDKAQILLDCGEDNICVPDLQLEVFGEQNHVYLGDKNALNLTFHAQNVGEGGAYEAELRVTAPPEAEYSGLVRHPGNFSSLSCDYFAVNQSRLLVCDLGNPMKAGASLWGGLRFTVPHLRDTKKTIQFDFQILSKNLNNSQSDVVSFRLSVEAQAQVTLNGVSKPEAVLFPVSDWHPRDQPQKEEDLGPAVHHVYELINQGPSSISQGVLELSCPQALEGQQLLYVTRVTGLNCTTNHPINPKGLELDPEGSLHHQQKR
T1 sequence (P08648 895-1049 limits assumed): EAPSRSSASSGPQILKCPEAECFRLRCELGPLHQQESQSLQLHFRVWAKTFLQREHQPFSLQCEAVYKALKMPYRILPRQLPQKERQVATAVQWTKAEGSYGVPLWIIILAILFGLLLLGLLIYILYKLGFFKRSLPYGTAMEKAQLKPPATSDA

For `CNc1cccc(CCOc2ccc(C[C@H](NC(=O)c3c(F)cccc3Cl)C(=O)O)cc2)n1`, the IC50 in data set [1] is < 1 nM; in [2] it was 19 nM; in [3], 1500 nM; in data set [6], 280 nM; in data set [7], 280 nM; in data set [8], 160 nM. Also, the “Drug uptake(free)” value worked out at 0.6% in data set [4] and 0.5% in data set [5]. For the same compound, the Ratio IC50 in data set [9] worked out at 1.7.
Consider `CNc1cccc(CCOc2ccc(C[C@H](NC(=O)c3c(Cl)cncc3Cl)C(=O)O)cc2)n1`, for which the IC50 in data set [1] is < 1 nM; in data set [2], < 4 nM; in data set [3], 55 nM; in data set [6] it was 130 nM; in data set [7] it was 130 nM; in data set [8] it was 52 nM. The “Drug uptake(free)” value in data set [4] is reported as 2.4%; in data set [5], 3.3%. Besides, the Ratio IC50 in data set [9] was 2.6.
